Data taken from patent US6224850A, “Antiwrinkle cosmetic/pharmaceutical compositions comprising iridaceae extracts” (Societe L'Oreal S.A., priority 1996, dated 2001).

Tests used:
[1] = test system: convulsions induced by strychnine in mice; settings: mouse, in vivo
[2] = molecular target: GABA-A receptor; format: binding, rat; settings: dose displacing 50% of tritiated muscimol; nonlabelled muscimol
[3] = molecular target: Glycine receptor (Rattus norvegicus, UniProt P07727); assay: biochemical; format: binding
Sequence of Glycine receptor (P07727 29-457): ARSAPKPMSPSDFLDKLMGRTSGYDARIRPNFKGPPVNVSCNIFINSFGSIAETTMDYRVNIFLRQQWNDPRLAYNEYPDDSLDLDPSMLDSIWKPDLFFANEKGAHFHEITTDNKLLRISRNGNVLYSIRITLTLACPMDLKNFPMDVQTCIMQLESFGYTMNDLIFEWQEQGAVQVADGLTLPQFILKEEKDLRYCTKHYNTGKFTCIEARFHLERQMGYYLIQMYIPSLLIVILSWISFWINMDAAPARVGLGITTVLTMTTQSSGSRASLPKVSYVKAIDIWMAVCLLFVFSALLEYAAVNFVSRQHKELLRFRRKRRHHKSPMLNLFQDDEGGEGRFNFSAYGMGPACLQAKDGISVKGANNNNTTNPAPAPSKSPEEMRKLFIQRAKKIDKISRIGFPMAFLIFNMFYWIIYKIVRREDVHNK
Sequence of Glycine receptor (P20781 23-496, further chain): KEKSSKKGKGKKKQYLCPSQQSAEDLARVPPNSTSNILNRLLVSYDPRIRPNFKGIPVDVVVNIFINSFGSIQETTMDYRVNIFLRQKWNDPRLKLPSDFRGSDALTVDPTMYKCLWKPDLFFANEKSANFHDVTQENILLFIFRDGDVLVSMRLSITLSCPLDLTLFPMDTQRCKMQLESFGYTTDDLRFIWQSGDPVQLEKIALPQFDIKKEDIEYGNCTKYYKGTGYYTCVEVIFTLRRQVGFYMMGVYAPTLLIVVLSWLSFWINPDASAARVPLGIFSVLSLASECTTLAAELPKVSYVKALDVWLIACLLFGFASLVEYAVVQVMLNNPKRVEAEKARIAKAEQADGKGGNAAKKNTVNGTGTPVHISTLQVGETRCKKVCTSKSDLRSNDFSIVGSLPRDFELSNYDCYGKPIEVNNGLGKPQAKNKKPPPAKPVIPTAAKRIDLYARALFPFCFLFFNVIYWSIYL

With `CN1C(=O)CN=C(c2ccccc2)c2cc(Cl)ccc21` [Diazepam] the “Delay in the appearance of the convulsions” value [1] was 3431 and the “Variation (%) of delay” value [1] was “+1190”.

`NCc1cc(=O)[nH]o1` [muscimol] was tested, and the IC50 [2] was 8.2 nM.

`O=C1C[C@@H]2OCC=C3CN4CC[C@]56c7ccccc7N1[C@H]5[C@H]2[C@H]3C[C@H]46` [strychnine] gave an IC50 [3] of 26.9 nM.
